Measured values as given in US11679099B2, “Use of HIF-2α inhibitors for treating chondrosarcoma, or preventing recurrence and metastasis thereof” (SEOUL NATIONAL UNIVERSITY R&DB FOUNDATION, priority 2020, dated 2023).
Entries after “also recorded” stand apart in the source; their conditions may differ.

Columns and labels:
SW1353 cells [1] = assay: Apoptosis analysis, Annexin-V/PI flow cytometry; assay type: cell-based, human; conditions: 10 μM TC-S7009 pretreatment 48 h and/or 5 μg/ml cisplatin 24 h
Procedure: Drug Interaction Studies. For analysis of combination index (CI), SW1353 cells were pretreated with vehicle, 10 μM Nutlin-3a, 10 μM ABT-888, or 10 μM TC-S7009 for 48 h and additionally treated with 0.2, 0.5, 1, 2, or 5 μg/ml cisplatin or left untreated for 72 h. Cell viability was measured by the MTT assay. CI was calculated using the Compusyn software version 1.0, and synergistic effects were determined by the Chou-Talalay method (Chou T C. Drug Combination Studies and Their Synergy Quantification Using the Chou-Talalay Method. Cancer Res. 2010; 70(2):440-446). Drug combination at a non-constant ratio was used to calculate CI. For apoptosis analysis, SW1353 cells were pretreated with vehicle, 10 μM Nutlin-3a, 10 μM ABT-888, or 10 μM TC-S7009 for 48 h and additionally treated with 5 μg/ml cisplatin for 24 h. Subsequently, cells were stained with the Annexin V-FITC Apoptosis Detection Kit (Sigma Aldrich, APOAF) according to manufacturer's protocol. Flow cytometry analysis was performed on a FACSCanto II flow cytometer (BD Biosciences).

SW1353 tumors = assay: Adjuvant chemotherapy in orthotopic chondrosarcoma xenograft model; assay type: in vivo, athymic nude mice (BALB/c nu/nu); conditions: mice, i.p., 2 mg/kg cisplatin and/or 20 mg/kg TC-S7009, twice weekly for four weeks
Excerpt: FIG. 5G is a schematic diagram of combination chemotherapy with TC-S7009. Mice were intraperitoneally injected 8 times with DMSO, cisplatin, TC-S7009, or cisplatin plus TC-S7009, twice a week from two weeks following the orthotopic xenograft (n=5).
Mice and experimental systems. Female athymic nude mice (BALB/c nu/nu, 5 weeks old) were purchased from Daehan-Biolink Co. and housed in individually ventilated cages. Mice were maintained under pathogen-free conditions. Food and water were provided after their sterilization. For in vivo experiments, at least five mice per experimental condition were used. Animals were randomly allocated to each experimental group, and the treatment allocation was blinded. In the orthotopic injection model, SW1353 cells were trypsinized and resuspended in PBS after centrifugation. The number of cells was adjusted to 1×10^6 cells per 25 μl. For SW1353 cells that stably overexpressed eGFP or HIF-2α, cell number was adjusted to 1×10^5 cells per 25 μl. Cells were mixed with 25 μl of Geltrex (Thermo Fisher Scientific, Geltrex™ LDEV-Free Reduced Growth Factor Basement Membrane Matrix). Before the procedure, mice were anesthetized. Skin was incised using a scalpel, and a single 0.35-mm diameter hole was drilled through the cartilage of the upper right tibia with the aid of sterile H-files (MANI, 28 mm #70). Subsequently, 10 μl of cell mixture was slowly injected with a 30-gauge microsyringe needle through the hole. The hole was sealed using surgical wax, and the surgery site was extensively rinsed with sterile PBS to wash out any spilled cell mixture. As the last step of the surgical procedure, the cutaneous wound was sutured. After the chosen experimental periods, mice were sacrificed, and total hindlimbs were dissected. For lung specimens, PBS was instilled through the trachea, and all specimens were processed for histomorphometric and immunohistochemical analysis. For the adjuvant chemotherapy studies, two weeks after the orthotopic injection of chondrosarcoma cells, mice were injected intraperitoneally with or without 2 mg/kg cisplatin in the presence or absence of 20 mg/kg TC-S7009 (Tocris) dissolved in Kolliphor EL (castor oil, 10% v/v, Sigma Aldrich, C5135). Vehicle solution was composed of DMSO, PBS, and Kolliphor EL (10% v/v). Chemotherapy cocktails were administered to mice twice weekly for four weeks.

HIF-2α [2] = biological target: T1, HIF-2α (Homo sapiens, UniProt Q99814); assay: HRE reporter gene (luciferase) assay; assay type: cell-based; conditions: SW1353 cells co-transfected with pcDNA3-EPAS1 and HRE reporter; different doses of TC-S7009, 24 h
T1 construct: host or cells: SW1353 cells
Procedure: (A) SW1353 cells were co-transfected with pcDNA3 or pcDNA3-EPAS1 and the HRE containing reporter plasmid in the absence or presence of different doses of TC-S7009. HRE reporter activity was normalized to Renilla luciferase activity (n=5). […] (Scale bar, 200 μm.) Values indicate the mean±SEM, ***P<0.001, N.S., not significant, ANOVA (A-C) and Student's t test (D).
Luciferase assay. HIF-2α activity was determined by reporter gene assay. SW1353 cells were transfected with 1 μg of a reporter vector containing hypoxia responsive element repeats. The thymidine kinase promoter-Renilla luciferase reporter plasmid (pRL-TK) was used as a control for measuring transfection efficiency. […] Twenty-four hours after transfection, cells were treated with TC-S7009 for an additional 24 h. Luciferase activity was measured using luciferin and normalized by Renilla luciferase activity.

SW1353 cells [3] = assay: Trypan blue exclusion assay (cell viability); assay type: cell-based, human
Excerpt: (§1) (A) SW1353 cells were co-transfected with pcDNA3 or pcDNA3-EPAS1 and the HRE containing reporter plasmid in the absence or presence of different doses of TC-S7009. HRE reporter activity was normalized to Renilla luciferase activity (n=5). (B) Trypan blue exclusion assay to test the effect of TC-S7009 on cell viability of SW1353 cells (n=3). (C) Colony formation assay of SW1353 cells in the absence or presence of different doses of TC-S7009. The number of colonies counted using the ImageJ software (n=5). (D) Migration assay performed using SW1353 cells treated with DMSO or 10 μM TC-S7009. Representative images are shown (Left), and the relative area of migration (Right) was determined using the Image-Pro Premier software (n=6). (Scale bar, 200 μm.) Values indicate the mean±SEM, ***P<0.001, N.S., not significant, ANOVA (A-C) and Student's t test (D). P values; N.S.=non-significant, ***P<0.001. HRE=hypoxia response element; P=P value.

SW1353 cells [4] = assay: Transwell invasion assay; assay type: cell-based, human; conditions: 10 μM TC-S7009 vs DMSO
Procedure: FIG. 5A is the results of Transwell invasion (n=3) assay using SW1353 cells treated with DMSO or 10 μM TC-S7009. Representative images were shown, the invaded cells were calculated on the random image fields and normalized to the cells treated with DMSO. Scale Bar=200 μm.
Transwell invasion assay. The invasion assay was performed using Transwell (BD Falcon, pore size, 8 μm, PET) in 24-well plates. Filters were coated with 20 μg of Geltrex (Thermo Fisher Scientific) in 20 μl of serum-free DMEM and dried for 4 h in a sterile environment. Prior to the invasion assay, SW1353 and OUMS-27 cells were starved for 12 h in serum-free DMEM. Immediately before seeding the cells, the dried transwells were rehydrated with 25 μl of serum-free DMEM for 1 h at 37° C. Starved cells were trypsinized, centrifuged, and resuspended in serum-free DMEM. Approximately 1×10^5 cells in 200 μl of serum-free DMEM were placed in each transwell and 2 ml of DMEM supplemented with 10% FBS was placed in each 24-well plate. The plates were incubated for 48 h at 37° C., fixed in 4% paraformaldehyde for 2 min, permeabilized in 100% methanol for 20 min, and stained with 0.1% crystal violet in 10% ethanol for 20 min. Cells on the upper side of the transwell were removed with cotton-tipped swabs. […] Image fields were randomly chosen, and invading cells were counted using the ImageJ software (National Institutes of Health).

SW1353 cells [5] = assay: Gelatin degradation assay; assay type: cell-based, human; conditions: 10 μM TC-S7009 vs DMSO
Procedure: Gelatin degradation assay. SW1353 cells were seeded on coverslips coated with Oregon Green 488-conjugated gelatin (Life Technologies) at 4×10^4 cells per well. Briefly, coverslips were treated with 50 μg/ml poly-D-Lysine (Corning) for 20 min followed by 0.5% glutaraldehyde (Junsei Chemical) for 15 min on ice. Treated coverslips were coated at 37° C. with pre-warmed 200 μg/ml Oregon Green 488-conjugated gelatin for 10 min in the dark, treated with 5 mg/ml NaBH4 for 15 min, and extensively washed with 70% ethanol and PBS. Cells were incubated for 18 h after seeding. For imaging gelatin degradation, cells were fixed with 50% methanol (v/v) and 10% acetic acid (v/v) solution for 10 min and stained with DAPI. For each coverslip, three fields were imaged at 20× magnification using a fluorescence microscope (EVOS FL Cell Imaging System, Thermo Fisher Scientific). To quantify gelatin degradation, the area of degradation in each field was measured by color-thresholding, using the ImageJ software.

SW1353 cells [6] = assay: Sphere formation assay; assay type: cell-based, human; conditions: 10 μM TC-S7009 vs DMSO
Procedure: FIG. 5C is the results of sphere formation (n=3) assays using SW1353 cells treated with DMSO or 10 μM TC-S7009 assay using SW1353 cells treated with DMSO or 10 μM TC-S7009. The representative images were shown and the diameter of the spheres were measured. Box-whisker plot were used to present the data. Scale Bar=200 μm.
Sphere formation assay. SW1353 and OUMS-27 cells were suspended in DMEM-F12 medium supplemented with 2% of B27 supplement (Thermo Fisher Scientific), 20 ng/ml EGF (Invitrogen), and 20 ng/ml basic fibroblast growth factor (bFGF; Peprotech). For experiments using SW1353 cells overexpressing eGFP or HIF-2α, cells were suspended in DMEM-F12 medium in the absence of the above supplements. Cells were then seeded in 24-well Ultra-low attachment plates (Corning) at a density of 1×10^4 cells per well. Four days later, fresh medium was added in each well. Seven days later, spheres were analyzed by the sphere diameter and the number of spheres larger than 50 μm (Axio Observer Z1, Zeiss). In relation to the diameter of the spheres, three representative fields per well were imaged, and diameters were measured using the AxioVision software (Zeiss): the three longest diameters per image field for each group were recorded. The distribution of the sphere diameters was plotted using the notched Box-and-Whisker plot originally invented by Tukey. […]

SW1353 cells [7] = assay: Colony formation assay; assay type: cell-based, human; conditions: 10 μM or different doses of TC-S7009 vs DMSO
Procedure: FIG. 5D is the results of colony formation (P<0.001, n=5) assays using SW1353 cells treated with DMSO or 10 μM TC-S7009 assay using SW1353 cells treated with DMSO or 10 μM TC-S7009. The representative images and quantification results were shown.
as §1
Colony formation assay. SW1353 cells were suspended in DMEM supplied with 10% FBS and seeded in 6-well plates; 1×10^3 and 500 cells were seeded in each well for the knockdown and overexpression experiments, respectively. […]

SW1353 cells [8] = assay: Migration assay; assay type: cell-based, human; conditions: 10 μM TC-S7009 vs DMSO
Excerpt: as §1
Migration assay. SW1353 and OUMS-27 cells were cultured in a 6-well plate at a density of 5×10^5 cells per well. When cells achieved 90% confluence, a wound was made with a sterile yellow tip. Cells were washed with PBS three times and incubated in fresh media with 1% FBS for 36 h. Every 12 h, randomly selected fields were captured by a digital camera under a microscope.

HIF-2α [9] = assay: siRNA knockdown of HIF-2α in SW1353 cells; assay type: cell-based, human; conditions: SW1353 cells transfected with siRNA
Procedure: Cell culture. Chondrosarcoma cell lines SW1353 and OUMS-27 were purchased from ATCC and JCRB Cell Bank, respectively, maintained in 3% O2 at 37° C., and cultured in DMEM (WelGENE Inc., LM001-05) supplemented with 10% FBS (Gibco, 26140079) and 1% antibiotics. For the selection of stable cell lines, 1×10^3 cells were seeded in 100 mm dishes and incubated for approximately two weeks until colonies became visible, and they were supplied with fresh media every three days. Visible colonies were individually isolated using cloning rings. Single colony-forming cells were trypsinized, seeded into 24-well plates, and gradually expanded to 100 mm dishes. Transfection was performed with METAFECTENE PRO (Biontex, T040) according to the manufacturer's protocol. All siRNAs were purchased from Bioneer. All cell lines were tested and authenticated using short-tandem repeat (STR) profiling by the Korean Cell Line Bank and were free of mycoplasma contamination. None of the cell line stocks used in this study was found in the database of commonly misidentified cell lines listed by ICLAC.
Microarray. SW1353 cells (3×10^5) were transfected with control, HIF1A, or EPAS1 siRNAs. Three biological replicates were used for each group. cDNA was synthesized using the GeneChip WT (Whole Transcript) Amplification kit as described by the manufacturer. […]

T1 sequence (Q99814 whole entry): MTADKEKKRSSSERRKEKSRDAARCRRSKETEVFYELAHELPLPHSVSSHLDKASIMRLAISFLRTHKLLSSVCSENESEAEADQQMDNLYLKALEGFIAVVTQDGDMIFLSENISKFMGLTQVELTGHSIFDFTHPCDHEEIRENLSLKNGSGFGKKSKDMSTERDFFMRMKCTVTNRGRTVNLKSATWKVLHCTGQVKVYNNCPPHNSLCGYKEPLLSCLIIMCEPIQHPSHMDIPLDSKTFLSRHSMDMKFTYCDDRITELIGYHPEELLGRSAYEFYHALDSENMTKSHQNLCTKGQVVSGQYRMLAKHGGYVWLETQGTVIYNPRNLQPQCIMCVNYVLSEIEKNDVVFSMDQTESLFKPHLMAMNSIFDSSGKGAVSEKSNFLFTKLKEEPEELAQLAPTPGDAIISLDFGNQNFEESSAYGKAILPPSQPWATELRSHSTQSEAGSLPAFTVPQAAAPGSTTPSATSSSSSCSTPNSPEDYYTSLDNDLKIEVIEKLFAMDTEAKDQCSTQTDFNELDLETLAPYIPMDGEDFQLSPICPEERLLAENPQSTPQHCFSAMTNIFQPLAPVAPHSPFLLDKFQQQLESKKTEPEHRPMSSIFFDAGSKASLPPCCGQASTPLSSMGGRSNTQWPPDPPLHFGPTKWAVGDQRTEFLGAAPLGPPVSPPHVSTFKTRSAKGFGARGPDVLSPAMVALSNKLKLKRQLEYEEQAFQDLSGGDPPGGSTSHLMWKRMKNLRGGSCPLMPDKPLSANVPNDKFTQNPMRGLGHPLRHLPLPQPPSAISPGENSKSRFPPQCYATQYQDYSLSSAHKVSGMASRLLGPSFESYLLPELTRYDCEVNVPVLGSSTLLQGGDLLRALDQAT

Row | Molecule | apoptotic cells (Annexin-V and PI positive populations) (SW1353 cells [1]) | extraosseous outgrowth of primary tumor (SW1353 tumors) | pulmonary (lung) metastasis (SW1353 tumors) | transcriptional activity of HIF-2α (HRE reporter activity) (HIF-2α [2]) | cytotoxicity / cell viability (SW1353 cells [3]) | invasive phenotypes (transwell invasion) (SW1353 cells [4]) | matrix-degrading activity (gelatin degradation) (SW1353 cells [5]) | sphere formation (SW1353 cells [6]) | clonogenicity (colony formation) (SW1353 cells [7]) | migration ability (SW1353 cells [8]) | expression of HIF-2α at the cellular level (HIF-2α [9])
1 | N.N.[Cl][Pt][Cl] [Cisplatin, cisplatin] | mild increase | mild-to-moderate reduction | mild-to-moderate reduction |  |  |  |  |  |  |  | 
2 | O=[N+]([O-])c1c(Nc2cc(F)cc(Cl)c2)ccc2nonc12 [TC-S7009, N-(3-Chloro-5-fluorophenyl)-4-nitro-2,1,3-benzoxadiazol-5-amine] | did not noticeably affect cell death | mild-to-moderate reduction | mild-to-moderate reduction | effectively abolished; also recorded: effectively blocks | without any apparent cytotoxicity; also recorded: without affecting | effectively blocked | effectively blocked | effectively blocked | effectively blocked | without affecting | 
3 | EPAS1 siRNA: siRNA for HIF-2α, sense and antisense SEQ ID Nos: 3 and 4 with dTdT overhang (sense ACUACGUCCUGAGUGAGAUDTDT; antisense AUCUCACUCAGGACGUAGUDTDT; dTdT overhangs, chemistry not fully specified) |  |  |  |  |  |  |  |  |  |  | effectively suppress
